Experimental data reported in patent US7183295B2, “PPAR-activating compound and pharmaceutical composition comprising the compound” (Kowa Co., Ltd., priority 2003, dated 2007).

Key:
Type in all cases: cell-based
[1] = target: T1, human PPARγ (182–505aa) ligand binding domain (Homo sapiens, UniProt P37231); assay: PPAR transfection (Gal4-LBD luciferase reporter) assay, hPPARγ; details: for activation factor, hPPARγ (FIGS. 1 to 5): at 10-fold concentration of EC50 value in activation of hPPARα, ratio to DMSO control; for EC50: 16 hours, luciferase activity, read-out: hPPAR, EC50 γ (agonist activity)
T1 construct: γ(182–505aa); expressed in transfected cells; host or cells: COS-7
T1 sequence (P37231 182-505): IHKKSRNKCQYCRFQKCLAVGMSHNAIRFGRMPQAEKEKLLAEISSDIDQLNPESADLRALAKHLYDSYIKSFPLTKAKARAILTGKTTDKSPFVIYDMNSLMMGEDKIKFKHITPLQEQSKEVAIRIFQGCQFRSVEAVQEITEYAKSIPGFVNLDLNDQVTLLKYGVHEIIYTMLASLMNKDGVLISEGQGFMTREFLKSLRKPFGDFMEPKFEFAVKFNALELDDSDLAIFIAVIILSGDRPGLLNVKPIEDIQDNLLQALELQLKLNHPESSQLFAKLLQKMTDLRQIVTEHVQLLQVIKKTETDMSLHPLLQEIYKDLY
Protocol: (§1) COS-7 cells, which is African green monkey kidney cell line, were used for all transfection assays. Cells were cultured in DMEM medium supplemented with 10% fetal bovine serum, glutamic acid, and an antibiotic under humidified 5% CO2 atmosphere.
(§2) Cells were transfected by lipofectamine reagent with a mixture containing expression plasmid, firefly luciferase reporter plasmid. And a β-galactosidase expression plasmid used as an internal control for transfection efficiency.
(§3) Transiently transfected cells were incubated with DMEM with 0.2% FCS with or without compound. And after 16 hours, luciferase activity and β-galactosidase activity of cell lysate were measured.
(§4) Each compound was dissolved in and diluted with dimethyl sulfoxide (DMSO), and the DMSO concentration of the DMEM medium (containing 0.2% serum) was adjusted to 0.1% upon treatment of cells.

[2] = target: T2, human PPARδ (137–441aa) ligand binding domain (Homo sapiens, UniProt Q03181); assay: PPAR transfection (Gal4-LBD luciferase reporter) assay, hPPARδ; details: for activation factor, hPPARδ (FIGS. 1 to 5): at 10-fold concentration of EC50 value in activation of hPPARα, ratio to DMSO control; for EC50: 16 hours, luciferase activity, read-out: hPPAR, EC50 δ (agonist activity)
T2 construct: δ (137–441aa); expressed in transfected cells; host or cells: COS-7
T2 sequence (Q03181 137-441): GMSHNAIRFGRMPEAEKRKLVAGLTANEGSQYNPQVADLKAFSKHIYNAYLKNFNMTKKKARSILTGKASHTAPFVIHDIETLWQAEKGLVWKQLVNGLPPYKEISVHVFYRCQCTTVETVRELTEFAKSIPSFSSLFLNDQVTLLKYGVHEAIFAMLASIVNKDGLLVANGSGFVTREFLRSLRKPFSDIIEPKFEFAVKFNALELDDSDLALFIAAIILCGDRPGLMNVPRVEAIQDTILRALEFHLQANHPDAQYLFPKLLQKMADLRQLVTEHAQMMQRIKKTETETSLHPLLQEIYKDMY
Protocol: as §1, §2, §3, §4

[3] = target: T3, human PPARα (166–467aa) ligand binding domain (Homo sapiens, UniProt Q07869); assay: PPAR transfection (Gal4-LBD luciferase reporter) assay, hPPARα; details: for EC50: 16 hours, luciferase activity, read-out: hPPAR, EC50 α (agonist activity)
T3 construct: human PPARα (166–467aa); expressed in transfected cells; host or cells: COS-7
T3 sequence (Q07869 166-467): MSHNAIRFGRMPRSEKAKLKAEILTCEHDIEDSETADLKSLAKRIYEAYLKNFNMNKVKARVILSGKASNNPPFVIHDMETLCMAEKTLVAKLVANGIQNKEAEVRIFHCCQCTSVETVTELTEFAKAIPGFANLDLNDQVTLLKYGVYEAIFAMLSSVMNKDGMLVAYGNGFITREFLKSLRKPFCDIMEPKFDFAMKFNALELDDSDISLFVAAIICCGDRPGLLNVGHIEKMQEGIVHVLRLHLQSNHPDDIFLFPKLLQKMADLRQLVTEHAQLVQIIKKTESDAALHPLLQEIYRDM
Protocol: as §1, §2, §3, §4

SMILES	activation factor, hPPARγ (FIGS. 1 to 5) [1]	EC50 ([1]; transfected COS-7 cells) [µM]	activation factor, hPPARδ (FIGS. 1 to 5) [2]	EC50 ([2]; transfected COS-7 cells) [µM]	EC50 ([3]; transfected COS-7 cells) [µM]	activation of hPPARγ isoform ([1]; transfected COS-7 cells)	activation of hPPARδ isoform ([2]; transfected COS-7 cells)	activation factor, hPPARα (FIGS. 1 to 5) ([3]; at EC50 value in activation of hPPARα and at 10 times that concentration, ratio to DMSO control)	activation of hPPARα isoform ([3]; transfected COS-7 cells)
CC(C)(Oc1ccc(CCCN(CCc2ccccc2)c2nc3ccccc3s2)cc1)C(=O)O [Compound A]	strongly activate	0.2	strongly activate	0.4	0.1	–	–	–	–
CC(C)(Oc1ccc(CCCN(CCc2ccccc2)C(=O)c2nc3ccccc3s2)cc1)C(=O)O [Compound B, reference compound]	strongly activate	0.7	strongly activate	0.9	0.12	–	–	–	–
CC(C)(Oc1ccc(CCCN(CCc2ccccc2)c2nc3ccccc3[nH]2)cc1)C(=O)O [Compound C, reference compound]	activated no hPPAR isoform	–	activated no hPPAR isoform	–	–	no activation	no activation	activated no hPPAR isoform	no activation
CCC(Oc1cccc(CN(CCCOc2ccc(F)cc2)c2nc3ccccc3o2)c1)C(=O)O (stereo not drawn) [Example 1, 2-[3-[[N-(Benzoxazol-2-yl)-N-3-(4-fluorophenoxy)propyl]aminomethyl]phenoxy]butyric acid]	substantially no activation	> 100	substantially no activation	1.6	0.01	–	–	–	–
CCC(Oc1cccc(CN(CCOc2ccc(Cl)cc2)c2nc3ccccc3o2)c1)C(=O)O (stereo not drawn) [Example 2, 2-[3-[[N-(Benzoxazol-2-yl)-N-2-(4-chlorophenoxy)ethyl]aminomethyl]phenoxy]butyric acid]	substantially no activation	7.3	substantially no activation	2.5	0.01	–	–	–	–
CCC(Oc1cccc(CN(CCOc2ccc(F)cc2)c2nc3ccccc3o2)c1)C(=O)O (stereo not drawn) [Example 3, 2-[3-[[N-(Benzoxazol-2-yl)-N-2-(4-fluorophenoxy)ethyl]aminomethyl]phenoxy]butyric acid]	–	> 100	–	1.8	0.01	–	–	–	–
CC(C)(Oc1cccc(CN(CCOc2ccc(Cl)cc2)c2nc3ccccc3o2)c1)C(=O)O [Example 6, 2-[3-[[N-(Benzoxazol-2-yl)-N-2-(4-chlorophenoxy)ethyl]aminomethyl]phenoxy]-2-methylpropionic acid]	–	3.5	–	> 100	0.07	–	–	–	–
CC(Oc1cccc(CN(CCCOc2ccccc2)c2nc3ccccc3o2)c1)C(=O)O (stereo not drawn) [Example 9, 2-[3-[[N-(Benzoxazol-2-yl)-N-3-phenoxypropyl]aminomethyl]phenoxy]propionic acid]	–	1.2	–	2.4	0.01	–	–	–	–
O=C(O)COc1cccc(CN(CCCOc2ccccc2)c2nc3ccccc3o2)c1 [Example 12, 3-[[N-(Benzoxazol-2-yl)-N-3-phenoxypropyl]aminomethyl]phenoxyacetic acid]	–	> 100	–	> 100	1.2	–	–	–	–
CCC(Oc1cccc(CN(CCCOc2ccccc2)c2nc3ccccc3o2)c1)C(=O)O (stereo not drawn) [Example 13, 2-[3-[[N-(Benzoxazol-2-yl)-N-3-phenoxypropyl]aminomethyl]phenoxy]butyric acid]	–	> 50	–	2	0.01	–	–	–	–
CCC(Oc1cccc(CN(CCCOc2ccc(OC)cc2)c2nc3ccccc3o2)c1)C(=O)O (stereo not drawn) [Example 14, 2-[3-[[N-(Benzoxazol-2-yl)-N-3-(4-methoxyphenoxy)propyl]aminomethyl]phenoxy]butyric acid]	–	> 100	–	1.7	–	–	–	–	–
CC[C@@H](Oc1cccc(CN(CCCOc2ccc(OC)cc2)c2nc3ccccc3o2)c1)C(=O)O [Example 85, (R)-2-[[3-[N-(Benzoxazol-2-yl)-N-3-(4-methoxyphenoxy)propyl]aminomethyl]phenoxy]butyric acid]	–	1.1	–	1.6	–	–	–	–	–
